Assay results published in the NIST ThermoML archive (doi:10.1021/je060271a).

Conditions: Liquid, Vibrating tube method

CCCC(=O)OCC(COC(=O)CCC)(COC(=O)CCC)COC(=O)CCC [pentaerythritol tetrabutyrate]
Conditions	mass density [kg/m3]
343.14 K, 27001 kPa	1027.8
343.14 K, 27378 kPa	1028.1
343.14 K, 27722 kPa	1028.3
343.14 K, 28167 kPa	1028.7
343.14 K, 28200 kPa	1028.7
343.14 K, 28241 kPa	1028.7
343.14 K, 29595 kPa	1029.4
343.14 K, 29634 kPa	1029.5
343.14 K, 29666 kPa	1029.7
343.14 K, 29705 kPa	1029.5
343.14 K, 30226 kPa	1030
343.14 K, 30268 kPa	1029.9
343.14 K, 30303 kPa	1029.9
343.14 K, 30331 kPa	1030
343.14 K, 30366 kPa	1030.1
343.14 K, 30394 kPa	1030.1
343.14 K, 30429 kPa	1029.9
343.14 K, 30464 kPa	1030.1
343.14 K, 30785 kPa	1030.4
343.14 K, 30814 kPa	1030.4
343.14 K, 30849 kPa	1030.4
343.14 K, 30886 kPa	1030.3
343.14 K, 30916 kPa	1030.4
343.14 K, 32186 kPa	1031.3
343.14 K, 32224 kPa	1031.2
343.14 K, 32886 kPa	1031.6
343.14 K, 32998 kPa	1031.7
343.14 K, 33543 kPa	1032
343.14 K, 33577 kPa	1032.2
343.14 K, 33620 kPa	1032.2
343.14 K, 33664 kPa	1032.2
343.14 K, 33699 kPa	1032.2
343.14 K, 33741 kPa	1032.2
343.14 K, 33784 kPa	1032.2
343.14 K, 33820 kPa	1032.2
343.14 K, 33863 kPa	1032.3
343.14 K, 33907 kPa	1032.4
343.15 K, 454.1 kPa	1008.4
343.15 K, 473 kPa	1008.4
343.15 K, 494.2 kPa	1008.5
343.15 K, 517.1 kPa	1008.3
343.15 K, 5946.5 kPa	1012.7
343.15 K, 6013.6 kPa	1012.8
343.15 K, 6051.1 kPa	1012.8
343.15 K, 6081.9 kPa	1012.8
343.15 K, 7040 kPa	1013.6
343.15 K, 7078.5 kPa	1013.6
343.15 K, 7108.1 kPa	1013.7
343.15 K, 7140.9 kPa	1013.7
343.15 K, 8048.2 kPa	1014.3
343.15 K, 8412.3 kPa	1014.7
343.15 K, 8447.3 kPa	1014.8
343.15 K, 8482.2 kPa	1014.7
343.15 K, 8511.5 kPa	1014.7
343.15 K, 8547 kPa	1014.6
343.15 K, 8583.2 kPa	1014.8
343.15 K, 8618.9 kPa	1014.8
343.15 K, 8655.1 kPa	1014.9
343.15 K, 8686 kPa	1014.8
343.15 K, 8982.4 kPa	1015
343.15 K, 9021.7 kPa	1015.1
343.15 K, 9062.3 kPa	1015.2
343.15 K, 9096.7 kPa	1015.2
343.15 K, 9137.8 kPa	1015.1
343.15 K, 9179.2 kPa	1015.3
343.15 K, 9602.2 kPa	1015.6
343.15 K, 9638.9 kPa	1015.4
343.15 K, 9676.1 kPa	1015.7
343.15 K, 9713.7 kPa	1015.6
343.15 K, 9822.7 kPa	1015.8
343.15 K, 9861.5 kPa	1015.8
343.15 K, 9900.4 kPa	1015.9
343.15 K, 9939.7 kPa	1015.8
343.15 K, 9973.1 kPa	1015.9
343.15 K, 10013 kPa	1016
343.15 K, 10053 kPa	1015.8
343.15 K, 10095 kPa	1015.9
343.15 K, 10129 kPa	1015.9
343.15 K, 10171 kPa	1016
343.15 K, 10545 kPa	1016.2
343.15 K, 10590 kPa	1016.2
343.15 K, 10635 kPa	1016.3
343.15 K, 10674 kPa	1016.5
343.15 K, 10720 kPa	1016.3
343.15 K, 10767 kPa	1016.4
343.15 K, 10943 kPa	1016.5
343.15 K, 10980 kPa	1016.7
343.15 K, 11011 kPa	1016.6
343.15 K, 11049 kPa	1016.6
343.15 K, 11087 kPa	1016.7
343.15 K, 11125 kPa	1016.7
343.15 K, 11163 kPa	1016.7
343.15 K, 11196 kPa	1016.8
343.15 K, 11235 kPa	1016.8
343.15 K, 11314 kPa	1016.8
343.15 K, 11354 kPa	1016.8
343.15 K, 11388 kPa	1017
343.15 K, 11428 kPa	1016.8
343.15 K, 11468 kPa	1017
343.15 K, 11510 kPa	1017
343.15 K, 11544 kPa	1017
343.15 K, 11586 kPa	1017
343.15 K, 11628 kPa	1017.2
343.15 K, 11670 kPa	1017.1
343.15 K, 11714 kPa	1017.1
343.15 K, 11749 kPa	1017.1
343.15 K, 11792 kPa	1017.1
343.15 K, 11837 kPa	1017.3
343.15 K, 12365 kPa	1017.5
343.15 K, 12414 kPa	1017.6
343.15 K, 12458 kPa	1017.7
343.15 K, 12498 kPa	1017.7
343.15 K, 12547 kPa	1017.7
343.15 K, 12597 kPa	1017.8
343.15 K, 12647 kPa	1017.8
343.15 K, 12689 kPa	1017.9
343.15 K, 12739 kPa	1017.8
343.15 K, 12791 kPa	1018
343.15 K, 12843 kPa	1017.9
343.15 K, 12895 kPa	1018
343.15 K, 12939 kPa	1018
343.15 K, 12991 kPa	1018.1
343.15 K, 13044 kPa	1018
343.15 K, 13098 kPa	1018.2
343.15 K, 13151 kPa	1018.2
343.15 K, 13198 kPa	1018.2
343.15 K, 13252 kPa	1018.1
343.15 K, 13307 kPa	1018.2
343.15 K, 13364 kPa	1018.2
343.15 K, 13420 kPa	1018.4
343.15 K, 13468 kPa	1018.5
343.15 K, 13526 kPa	1018.4
343.15 K, 13584 kPa	1018.5
343.15 K, 13644 kPa	1018.5
343.15 K, 13698 kPa	1018.7
343.15 K, 13772 kPa	1018.6
343.15 K, 13822 kPa	1018.7
343.15 K, 13864 kPa	1018.6
343.15 K, 13901 kPa	1018.7
343.15 K, 13931 kPa	1018.8
343.15 K, 13968 kPa	1018.7
343.15 K, 14005 kPa	1018.7
343.15 K, 14043 kPa	1018.9
343.15 K, 14079 kPa	1018.8
343.15 K, 14110 kPa	1018.9
343.15 K, 14147 kPa	1018.9
